Test results as given in patent US12521393B2, “Cytotoxicity targeting chimeras for CCR2-expressing cells” (GLAXOSMITHKLINE INTELLECTUAL PROPERTY DEVELOPMENT LIMITED, priority 2021, dated 2026).
Structures can show the parent of a compound that is named as a salt.

Experiments:
[1] = target: human alpha1 nicotinic acetylcholine (nACh) receptor (Homo sapiens, UniProt P02708); experiment: Nicotinic acetylcholine receptor antagonism assay, IONFlux automated patch clamp (Example 203); assay type: cell-based
Procedure: Cells expressing human alpha1 nicotinic acetylcholine (nACh) receptor (nAChR) were washed and dissociated using Trypsin containing buffer. Cells were then washed and seeded at a density of 3-5 million cells/mL and allowed to grow for 3 days. Then, 60-80 μL of cells were added to plates and incubated with dose response of an ARM compound of Formula (I) with a top concentration of either 10 μM or 100 μM. The receptor was then stimulated via addition of acetylcholine (ACh) and activation of the receptor was monitored via the IONFlux automated patch clamp system. IonFlux Data Analyzer software was utilized to perform leak subtraction and measure (min) peak current amplitude.
Data processing: (1) Current values recorded for vehicle only applications in individual traps/patterns were subtracted from corresponding current amplitude values for control, test article and control+test article. (2) Control response was calculated as % of the average response of the 3rd out of total 3 ACh (10 mM) applications alone. In rare situations, if the 3rd ACh response was obscured due to technical artifacts, the 2nd and/or 1st ACh (10 mM) application was considered as control. The peak current amplitude generated in the presence of each test article concentration was then used to calculate the % inhibition as compared to control response (10 mM ACh alone). These estimates were further corrected for vehicle response and run down corrected by normalizing with time matched control responses (10 mM ACh alone). The corrected percentages were then fit with a non-linear function in GraphPad Prism 6 (or later versions) to determine the IC50.
Exclusion criteria: (i) any n's with poor recording quality, (ii) control current amplitude <500 pA or (iii) significant outliers, as determined by the Grubbs test.
ARMs compounds of Formula (I) of the invention were tested for antagonism of the nAChR in the above assay in […] experimental runs and the results are shown in Table 7 below. Antagonistic activity of the compounds of Formula (I) of the invention is reported as an IC50 value (half maximal inhibitory concentration) and the maximum percentage antagonism observed at the highest concentration of compound of Formula (I) tested, as indicated in Table 7. For compounds tested in more than one experimental run, the IC50 value is reported as an average

[2] = test system: CCR2 expressing cells (CD11b+Ly6c+Hi) in peripheral blood; experiment: In vivo depletion assay, flow cytometry of peripheral blood (Example 201); parameters: species or system human CCR2 knock-in mice (C57 background); conditions: hCCR2 knock-in mice, IV 0.1 mpk compound + 10 mpk anti-cotinine antibody (SEQ ID NO: 13/14), peripheral blood at 48 hr
Procedure: Stock solution preparation. Stock solutions of compounds of Formula (I) were prepared at 20 mg/mL and 100 mg/mL in […] for PK/PD and dose tolerability studies respectively. Stock solutions were stored at […] until further usage. on the day of experiment, the stock Solution of the compound of Formula (I) was removed from storage at […] and thawed at room temperature. Anti-cotinine antibody having a heavy chain sequence of SEC ID NO: 13 and a light chain sequence of SEQ ID NO: 14 (rabbit variable region sequence with mouse IgG2a Fc domain), if required was removed from storage at −80° C. and thawed at room temperature. Antibody vials were immediately transferred into wet ice after thawing. Compounds of Formula (I) were further diluted in DMSO as per experimental requirements.
The formulation composition was Saline: DMSI: PBS.
Saline was added based on the quantity required and then stock solution of the compound of Formula (I) prepared in DMSO, followed by addition of antibody in PBS. Formulations were incubated at room temperature for 30 minutes before administration to the mouse. DMSO was used at 1 to % (v/v) in the final formulation.
After bleeding, each mouse was sacrificed by cervical dislocation. […] Flow Cytometry Analysis:
CCR2 depletion in peripheral blood was determined by flow cytometry. Briefly, peripheral blood was collected from all animals at the end of study termination and processed. Blood samples were lysed using 1×RBC Lysis buffer and the resulting cell pellet was washed twice in FACS buffer (HBSS containing 5% FBS). Cells were subjected to Fc blocking using mouse Fc block from Biolegend (Trustain, anti-mouse CD16/32, Cat: 101319) to block non-specific binding followed by surface staining for immune markers (CD45, CD3, CD11 b, Ly6C, human CCR2). Surface staining was done for 30 minutes in ice and cells were washed twice to remove unbound antibodies. Cells were stained with 7AAD to determine viability and acquired on BD FACSVerse flow cytometer. Appropriate FMO controls and single-color controls were included in the experiment for gating and compensation respectively.
Percent depletion of CD11 b+Ly6c+Hi cells and CCR2 expression for the different treatment groups was determined.

[3] = test system: endogenous target monocytes in human PBMC; experiment: PBMC ex vivo monocyte depletion flow cytometry assay (Example 200); assay type: cell-based; conditions: with anti-cotinine antibody (SEQ ID NO: 11/12), 18-24 hours, EC50 in molar, read-out: Ex Vivo Depletion Assay pEC50 (converted)
Procedure, shortened: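 Monocyte depletion is reported as pEC50, averaged or given individually across runs, and read by flow cytometry staining CD45, CD14 and CD4 with a viability dye. Compounds, diluted four-fold over 11 points from 1 mM DMSO stocks, were combined with 30 μg/mL Fc-enhanced anti-cotinine antibody and human PBMC, then incubated 18-24 h at 37° C.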

Chain of human alpha1 nicotinic acetylcholine (nACh) receptor (P02708 21-457): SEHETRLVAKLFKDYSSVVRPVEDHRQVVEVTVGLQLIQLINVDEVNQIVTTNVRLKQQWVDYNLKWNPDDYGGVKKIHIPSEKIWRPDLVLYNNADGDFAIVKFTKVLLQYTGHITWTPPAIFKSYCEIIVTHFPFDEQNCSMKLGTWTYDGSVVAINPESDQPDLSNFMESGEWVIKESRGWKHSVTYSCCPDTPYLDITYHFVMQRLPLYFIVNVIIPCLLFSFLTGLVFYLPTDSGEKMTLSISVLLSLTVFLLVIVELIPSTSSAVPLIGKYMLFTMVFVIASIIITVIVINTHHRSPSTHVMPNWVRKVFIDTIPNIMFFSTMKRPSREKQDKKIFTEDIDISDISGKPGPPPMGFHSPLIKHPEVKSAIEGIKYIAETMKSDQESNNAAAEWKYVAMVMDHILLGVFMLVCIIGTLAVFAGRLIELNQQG
Chain of human alpha1 nicotinic acetylcholine (nACh) receptor (P11230 24-501 partner): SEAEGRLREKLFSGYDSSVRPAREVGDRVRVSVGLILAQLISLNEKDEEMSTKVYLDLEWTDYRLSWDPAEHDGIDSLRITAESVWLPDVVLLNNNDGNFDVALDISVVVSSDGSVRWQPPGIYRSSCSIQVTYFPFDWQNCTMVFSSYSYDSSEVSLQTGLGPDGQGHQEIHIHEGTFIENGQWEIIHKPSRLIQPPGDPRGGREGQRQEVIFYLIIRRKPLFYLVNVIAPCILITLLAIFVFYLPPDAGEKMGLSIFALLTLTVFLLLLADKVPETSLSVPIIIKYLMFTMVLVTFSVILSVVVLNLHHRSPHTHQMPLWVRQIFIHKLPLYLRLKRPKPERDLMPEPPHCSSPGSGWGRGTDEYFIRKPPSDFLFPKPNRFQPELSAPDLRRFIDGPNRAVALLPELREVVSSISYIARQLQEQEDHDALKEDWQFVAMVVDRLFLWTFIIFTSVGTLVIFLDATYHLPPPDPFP
Chain of human alpha1 nicotinic acetylcholine (nACh) receptor (Q07001 22-517 partner): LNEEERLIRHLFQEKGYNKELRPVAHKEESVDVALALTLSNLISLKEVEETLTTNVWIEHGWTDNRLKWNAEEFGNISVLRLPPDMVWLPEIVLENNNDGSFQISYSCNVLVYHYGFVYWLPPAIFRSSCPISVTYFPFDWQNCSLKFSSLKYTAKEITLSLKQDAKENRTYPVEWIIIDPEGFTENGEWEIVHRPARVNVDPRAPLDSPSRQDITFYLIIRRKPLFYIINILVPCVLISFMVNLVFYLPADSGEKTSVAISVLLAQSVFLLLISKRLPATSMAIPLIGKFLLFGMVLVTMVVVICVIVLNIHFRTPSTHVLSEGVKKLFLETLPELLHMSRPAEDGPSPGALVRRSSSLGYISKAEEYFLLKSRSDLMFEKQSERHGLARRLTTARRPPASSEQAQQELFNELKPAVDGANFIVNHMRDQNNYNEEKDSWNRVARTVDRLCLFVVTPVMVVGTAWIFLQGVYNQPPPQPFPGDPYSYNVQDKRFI

Compound	% Depletion of CCR2 expressing cells [2] [%]	EC50 [3] [nM]	also measured
CC(C)N(C)[C@@H]1CC[C@H](N2CC[C@H](Nc3ncnc4ccc(C(F)(F)F)cc34)C2=O)[C@H](NC(=O)[C@H]2C[C@@H](NC(=O)CCCO[C@H]3CC[C@H](OCCNC(=O)[C@H]4CC(=O)N(C)[C@@H]4c4cccnc4)CC3)C2)C1 [Example 9, (2S,3S)-N-(2-(((1S,4S)-4-(4-(((1S,3S)-3-(((1R,2S,5R)-5-(Isopropyl(methyl)amino)-2-((S)-2-oxo-3-((6-(trifluoromethyl)quinazolin-4-yl)amino)pyrrolidin-1-yl)cyclohexyl)carbamoyl)cyclobutyl)amino)-4-oxobutoxy)cyclohexyl)oxy)ethyl)-1-methyl-5-oxo-2-(pyridin-3-yl)pyrrolidine-3-carboxamide]	–	–	IC50 ([1]; antagonism of ACh-stimulated human alpha1 nAChR current, patch clamp): 82000 nM; Emax at 100 µM ([1]; maximum percentage antagonism at maximum concentration tested 100 μM, read-out: Maximum Response): 53.9%
CCN1C(=O)C[C@H](C(=O)NCCO[C@H]2CC[C@H](OCCCC(=O)N[C@H]3CC[C@H](C(=O)N[C@@H]4C[C@H](N(C)C(C)C)CC[C@@H]4N4CC[C@H](Nc5ncnc6ccc(C(F)(F)F)cc56)C4=O)CC3)CC2)[C@H]1c1cccnc1 [Example 11, (2S,3S)-1-ethyl-N-(2-(((1,4-trans)-4-(4-(((1,4-trans)-4-(((1R,2S,5R)-5-(isopropyl(methyl)amino)-2-((S)-2-oxo-3-((6-(trifluoromethyl)quinazolin-4-yl)amino)pyrrolidin-1-yl)cyclohexyl)carbamoyl)cyclohexyl)amino)-4-oxobutoxy)cyclohexyl)oxy)ethyl)-5-oxo-2-(pyridin-3-yl)pyrrolidine-3-carboxamide]	91.57	–	–
CC(C)N(C)[C@@H]1CC[C@H](N2CC[C@H](Nc3ncnc4ccc(C(F)(F)F)cc34)C2=O)[C@H](NC(=O)[C@H]2CC[C@H](NC(=O)CCCO[C@H]3CC[C@H](OCCNC(=O)[C@H]4CC(=O)N(C5CCC5)[C@@H]4c4cccnc4)CC3)CC2)C1 [Example 14, (2S,3S)-1-cyclobutyl-N-(2-(((trans)-4-(4-(((trans)-4-(((1R,2S,5R)-5-(isopropyl(methyl)amino)-2-((S)-2-oxo-3-((6-(trifluoromethyl)quinazolin-4-yl)amino)pyrrolidin-1-yl)cyclohexyl)carbamoyl)cyclohexyl)amino)-4-oxobutoxy)cyclohexyl)oxy)ethyl)-5-oxo-2-(pyridin-3-yl)pyrrolidine-3-carboxamide]	47.24	–	–
CC(C)(C)N[C@@H]1CC[C@H](N2CC[C@H](Nc3ncnc4ccc(C(F)(F)F)cc34)C2=O)[C@H](NC(=O)[C@H]2CC[C@H](NC(=O)CCCO[C@H]3CC[C@H](OCCNC(=O)[C@H]4CC(=O)N(C5CCC5)[C@@H]4c4cccnc4)CC3)CC2)C1 [Example 15, (2S,3S)-N-(2-(((1R,4S)-4-(4-(((1R,4R)-4-(((1R,2S,5R)-5-(tert-butylamino)-2-((S)-2-oxo-3-((6-(trifluoromethyl)quinazolin-4-yl)amino)pyrrolidin-1-yl)cyclohexyl)carbamoyl)cyclohexyl)amino)-4-oxobutoxy)cyclohexyl)oxy)ethyl)-1-cyclobutyl-5-oxo-2-(pyridin-3-yl)pyrrolidine-3-carboxamide]	92.6	–	–
CN1C(=O)C[C@H](C(=O)NCCOCCOCCOCCOCCOCCOCCOCCOCCC(=O)N[C@@H]2C[C@H](NC(C)(C)C)CC[C@@H]2N2CC[C@H](Nc3ncnc4ccc(C(F)(F)F)cc34)C2=O)[C@H]1c1cccnc1 [Example 36, (2S,3S)-N-(27-(((1R,2S,5R)-5-(tert-Butylamino)-2-((S)-2-oxo-3-((6-(trifluoromethyl)quinazolin-4-yl)amino)pyrrolidin-1-yl)cyclohexyl)amino)-27-oxo-3,6,9,12,15,18,21,24-octaoxaheptacosyl)-1-methyl-5-oxo-2-(pyridin-3-yl)pyrrolidine-3-carboxamide]	83.33	–	–
CC(C)N(C)[C@@H]1CC[C@H](N2CC[C@H](Nc3ncnc4ccc(C(F)(F)F)cc34)C2=O)[C@H](NC(=O)[C@H]2CC[C@@H](NC(=O)CCCOCCCOCCCNC(=O)[C@H]3CC(=O)N(C)[C@@H]3c3cccnc3)CC2)C1 [Example 193, (2S,3S)-N-(3-(3-(4-(((1S,4s)-4-(((1R,2S,5R)-5-(Isopropyl(methyl)amino)-2-((S)-2-oxo-3-((6-(trifluoromethyl)quinazolin-4-yl)amino)pyrrolidin-1-yl)cyclohexyl)carbamoyl)cyclohexyl)amino)-4-oxobutoxy)propoxy)propyl)-1-methyl-5-oxo-2-(pyridin-3-yl)pyrrolidine-3-carboxamide]	–	0.2	–
CC(C)N(C)[C@@H]1CC[C@H](N2CC[C@H](Nc3ncnc4ccc(C(F)(F)F)cc34)C2=O)[C@H](NC(=O)CCCCCCCCNCCOCCOCCOCCOCCNC(=O)[C@H]2CC(=O)N(C)[C@@H]2c2cccnc2)C1 [Example 195, (2S,3S)-N-(24-(((1R,2S,5R)-5-(Isopropyl(methyl)amino)-2-((S)-2-oxo-3-((6-(trifluoromethyl)quinazolin-4-yl)amino)pyrrolidin-1-yl)cyclohexyl)amino)-24-oxo-3,6,9,12-tetraoxa-15-azatetracosyl)-1-methyl-5-oxo-2-(pyridin-3-yl)pyrrolidine-3-carboxamide, 3Trifluoroacetic acid salt]	–	0.316	–
CC(C)N(C)[C@@H]1CC[C@H](N2CC[C@H](Nc3ncnc4ccc(C(F)(F)F)cc34)C2=O)[C@H](NC(=O)CCCCCCCCNCCCCCCCCCCNC(=O)[C@H]2CC(=O)N(C)[C@@H]2c2cccnc2)C1 [Example 196, (2S,3S)-N-(10-((9-(((1R,2S,5R)-5-(Isopropyl(methyl)amino)-2-((S)-2-oxo-3-((6-(trifluoromethyl)quinazolin-4-yl)amino)pyrrolidin-1-yl)cyclohexyl)amino)-9-oxononyl)amino)decyl)-1-methyl-5-oxo-2-(pyridin-3-yl)pyrrolidine-3-carboxamide, 3Formic acid salt.]	–	0.2	–
CC(C)N(C)[C@@H]1CC[C@H](N2CC[C@H](Nc3ncnc4ccc(C(F)(F)F)cc34)C2=O)[C@H](NC(=O)[C@H]2CC[C@@H](NC(=O)CCOCCCOCCCNC(=O)[C@H]3CC(=O)N(C)[C@@H]3c3cccnc3)CC2)C1 [Example 197, (2S,3S)-N-(3-(3-(3-(((1S,4s)-4-(((1R,2S,5R)-5-(Isopropyl(methyl)amino)-2-((S)-2-oxo-3-((6-(trifluoromethyl)quinazolin-4-yl)amino)pyrrolidin-1-yl)cyclohexyl)carbamoyl)cyclohexyl)amino)-3-oxopropoxy)propoxy)propyl)-1-methyl-5-oxo-2-(pyridin-3-yl)pyrrolidine-3-carboxamide]	–	1	–
